Source: ChEMBL document CHEMBL5634161, “Discovery of benzamide-based PI3K/HDAC dual inhibitors with marked pro-apoptosis activity in lymphoma cells” (Eur J Med Chem, 2023)
Active and inactive are the calls of the source. The rule behind the calls is not given here.

Columns and labels:
[1] = MRT (0 to infinity) in ICR mouse at 1 mg/kg, iv measured after 24 hrs by LC-MS/MS analysis; assay type: ADME, organism-based; conditions: in vivo
[2] = Stability in mouse liver microsomes assessed as compound remaining at […] preincubated for 5 mins followed by NADPH addition and measured after 5 mins by LC-MS/MS analysis; assay type: ADME, Microsome; conditions: time 10 min, read-out: Stability
JeKo-1 [3] = assay: Induction of apoptosis in human JeKo-1 cells assessed as late apoptotic cells at 1 uM incubated for 48 hrs by Annexin-V/FITC and PI staining based flow cytometric analysis (reference value: 3.66%); assay type: functional
Histone deacetylase 1 = Histone deacetylase 1 (Homo sapiens, UniProt Q13547); assay: Inhibition of HDAC1 (unknown origin) using Boc-Lys(acetyl)-AMC as substrate preincubated for 1 hrs followed by substrate addition and measured after 2 hrs by spectrophotometer based fluorometric assay
Histone deacetylase 11 = Histone deacetylase 11 (Homo sapiens, UniProt Q96DB2); assay: Inhibition of HDAC11 (unknown origin) using Boc-Lys(acetyl)-AMC as substrate preincubated for 1 hrs followed by substrate addition and measured after 2 hrs by spectrophotometer based fluorometric assay
JeKo-1 [4] = assay: Effect on total AKT protein level in human JeKo-1 cells at 0.25 uM incubated for 24 hrs by Western blot analysis; assay type: functional, cell-based
CYP3A4 = CYP3A4 (Homo sapiens, UniProt P08684); assay: Inhibition of CYP3A4 in human liver microsomes using bufuralol as substrate at 10 uM in presence of NADPH regenerating system by LC-MS/MS analysis relative to control; assay type: ADME, Microsome; conditions: probe bufuralol
Histone deacetylase 7 = Histone deacetylase 7 (Homo sapiens, UniProt Q8WUI4); assay: Inhibition of HDAC7 (unknown origin) using Boc-Lys(acetyl)-AMC as substrate preincubated for 1 hrs followed by substrate addition and measured after 2 hrs by spectrophotometer based fluorometric assay
JeKo-1 [5] = assay: Induction of apoptosis in human JeKo-1 cells assessed as late apoptotic cells at 0.25 uM incubated for 48 hrs by Annexin-V/FITC and PI staining based flow cytometric analysis (reference value: 3.66%); assay type: functional
MM1.S = assay: Antiproliferative activity against human MM1.S cells incubated for 48 hrs by resazurin dye based fluorescence micro plate reader analysis; assay type: functional, cell-based
Histone deacetylase 9 = Histone deacetylase 9 (Homo sapiens, UniProt Q9UKV0); assay: Inhibition of HDAC9 (unknown origin) using Boc-Lys(acetyl)-AMC as substrate preincubated for 1 hrs followed by substrate addition and measured after 2 hrs by spectrophotometer based fluorometric assay
[6] = Stability in mouse liver microsomes assessed as compound remaining at 0.5 mM preincubated for 5 mins followed by NADPH addition and measured immediately by LC-MS/MS analysis; assay type: ADME, Microsome; conditions: read-out: Stability
[7] = Inhibition of PI3K/AKT/mTOR signaling in human JeKo-1 cells assessed as decrease in AKT phosphorylation at S473 residue at 0.25 uM incubated for 24 hrs by Western blot analysis; assay type: cell-based
JeKo-1 [8] = assay: Antiproliferative activity against human JeKo-1 cells incubated for 48 hrs by resazurin dye based fluorescence micro plate reader analysis; assay type: functional, cell-based; conditions: JeKo-1, 48 h
[9] = AUC (0 to infinity) in ICR mouse at 1 mg/kg, iv measured after 24 hrs by LC-MS/MS analysis; assay type: ADME, organism-based; conditions: in vivo
[10] = Stability in human liver microsomes assessed as compound remaining at […] preincubated for 5 mins followed by NADPH addition and measured after 30 mins by LC-MS/MS analysis; assay type: ADME, Microsome; conditions: time 35 min, read-out: Stability
[11] = Stability in mouse liver microsomes assessed as half-life at […] preincubated for 5 mins followed by NADPH addition and measured upto 45 mins by LC-MS/MS analysis; assay type: ADME, Microsome; conditions: time < 50 min
JeKo-1 [12] = assay: Potency index, ratio of CI994 IC50 to test compound IC50 for antiproliferative activity against human JeKo-1 cells incubated for 48 hrs by resazurin based fluorescence microplate reader analysis; assay type: functional
[13] = Stability in rat liver microsomes assessed as compound remaining at 0.5 mM preincubated for 5 mins followed by NADPH addition and measured immediately by LC-MS/MS analysis; assay type: ADME, Microsome; conditions: read-out: Stability
[14] = biological target: Polyamine deacetylase HDAC10 (Homo sapiens, UniProt Q969S8); assay: Inhibition of HDAC10 (unknown origin) using Boc-Lys(acetyl)-AMC as substrate preincubated for 1 hrs followed by substrate addition and measured after 2 hrs by spectrophotometer based fluorometric assay
JeKo-1 [15] = assay: Induction of apoptosis in human JeKo-1 cells assessed as necrotic cells at 0.25 uM incubated for 48 hrs by Annexin-V/FITC and PI staining based flow cytometric analysis (reference value: 1.05%); assay type: functional
[16] = AUC (0 to t) in ICR mouse at 1 mg/kg, iv measured after 24 hrs by LC-MS/MS analysis; assay type: ADME, organism-based; conditions: in vivo
JeKo-1 [17] = assay: Upregulation of tubulin acetylation in human JeKo-1 cells at 0.25 to 1 uM incubated for 24 hrs by Western blot analysis; assay type: functional, cell-based; conditions: dose 0.25-1 µM
JeKo-1 [18] = assay: Induction of apoptosis in human JeKo-1 cells assessed as viable cells at 0.5 uM incubated for 48 hrs by Annexin-V/FITC and PI staining based flow cytometric analysis (reference value: 94.1%); assay type: functional; conditions: read-out: Activity
HL-60 = assay: Antiproliferative activity against human HL-60 cells incubated for 48 hrs by resazurin dye based fluorescence micro plate reader analysis; assay type: functional, cell-based; conditions: HL-60, 48 h
JeKo-1 [19] = assay: Induction of apoptosis in human JeKo-1 cells assessed as necrotic cells at 1 uM incubated for 48 hrs by Annexin-V/FITC and PI staining based flow cytometric analysis (reference value: 1.05%); assay type: functional
CYP2B6 = CYP2B6 (Homo sapiens, UniProt P20813); assay: Inhibition of CYP2B6 in human liver microsomes using bupropion as substrate at 10 uM in presence of NADPH regenerating system by LC-MS/MS analysis relative to control; assay type: ADME, Microsome; conditions: probe bupropion
[20] = Stability in rat liver microsomes assessed as compound remaining at […] preincubated for 5 mins followed by NADPH addition and measured after 30 mins by LC-MS/MS analysis; assay type: ADME, Microsome; conditions: time 35 min, read-out: Stability
[21] = Cytotoxicity against human HL7702 cells incubated for 48 hrs by resazurin dye based fluorescence micro plate reader analysis; assay type: toxicity, cell-based; conditions: HL7702 (L02) cells
[22] = Stability in mouse liver microsomes assessed as compound remaining at […] preincubated for 5 mins followed by NADPH addition and measured after 30 mins by LC-MS/MS analysis; assay type: ADME, Microsome; conditions: time 35 min, read-out: Stability
JeKo-1 [23] = assay: Induction of apoptosis in human JeKo-1 cells assessed as necrotic cells at 0.5 uM incubated for 48 hrs by Annexin-V/FITC and PI staining based flow cytometric analysis (reference value: 1.05%); assay type: functional
[24] = Stability in human liver microsomes assessed as compound remaining at […] preincubated for 5 mins followed by NADPH addition and measured after 45 mins by LC-MS/MS analysis; assay type: ADME, Microsome; conditions: time 50 min, read-out: Stability
Histone deacetylase 3 = Histone deacetylase 3 (Homo sapiens, UniProt O15379); assay: Inhibition of HDAC3 (unknown origin) using Boc-Lys(acetyl)-AMC as substrate preincubated for 1 hrs followed by substrate addition and measured after 2 hrs by spectrophotometer based fluorometric assay
Chain of Histone deacetylase 3 (O15379 whole entry): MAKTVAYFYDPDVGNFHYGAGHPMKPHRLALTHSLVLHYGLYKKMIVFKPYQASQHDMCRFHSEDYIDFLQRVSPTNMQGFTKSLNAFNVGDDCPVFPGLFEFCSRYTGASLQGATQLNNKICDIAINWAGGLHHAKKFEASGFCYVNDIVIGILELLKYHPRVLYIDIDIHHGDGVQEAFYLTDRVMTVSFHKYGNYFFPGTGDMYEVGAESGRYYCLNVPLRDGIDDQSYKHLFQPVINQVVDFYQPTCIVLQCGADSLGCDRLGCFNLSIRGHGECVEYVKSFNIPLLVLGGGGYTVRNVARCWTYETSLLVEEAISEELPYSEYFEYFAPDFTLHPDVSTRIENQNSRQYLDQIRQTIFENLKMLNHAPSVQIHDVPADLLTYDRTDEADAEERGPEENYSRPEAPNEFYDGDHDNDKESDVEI

Chain of Histone deacetylase 9 (Q9UKV0 whole entry): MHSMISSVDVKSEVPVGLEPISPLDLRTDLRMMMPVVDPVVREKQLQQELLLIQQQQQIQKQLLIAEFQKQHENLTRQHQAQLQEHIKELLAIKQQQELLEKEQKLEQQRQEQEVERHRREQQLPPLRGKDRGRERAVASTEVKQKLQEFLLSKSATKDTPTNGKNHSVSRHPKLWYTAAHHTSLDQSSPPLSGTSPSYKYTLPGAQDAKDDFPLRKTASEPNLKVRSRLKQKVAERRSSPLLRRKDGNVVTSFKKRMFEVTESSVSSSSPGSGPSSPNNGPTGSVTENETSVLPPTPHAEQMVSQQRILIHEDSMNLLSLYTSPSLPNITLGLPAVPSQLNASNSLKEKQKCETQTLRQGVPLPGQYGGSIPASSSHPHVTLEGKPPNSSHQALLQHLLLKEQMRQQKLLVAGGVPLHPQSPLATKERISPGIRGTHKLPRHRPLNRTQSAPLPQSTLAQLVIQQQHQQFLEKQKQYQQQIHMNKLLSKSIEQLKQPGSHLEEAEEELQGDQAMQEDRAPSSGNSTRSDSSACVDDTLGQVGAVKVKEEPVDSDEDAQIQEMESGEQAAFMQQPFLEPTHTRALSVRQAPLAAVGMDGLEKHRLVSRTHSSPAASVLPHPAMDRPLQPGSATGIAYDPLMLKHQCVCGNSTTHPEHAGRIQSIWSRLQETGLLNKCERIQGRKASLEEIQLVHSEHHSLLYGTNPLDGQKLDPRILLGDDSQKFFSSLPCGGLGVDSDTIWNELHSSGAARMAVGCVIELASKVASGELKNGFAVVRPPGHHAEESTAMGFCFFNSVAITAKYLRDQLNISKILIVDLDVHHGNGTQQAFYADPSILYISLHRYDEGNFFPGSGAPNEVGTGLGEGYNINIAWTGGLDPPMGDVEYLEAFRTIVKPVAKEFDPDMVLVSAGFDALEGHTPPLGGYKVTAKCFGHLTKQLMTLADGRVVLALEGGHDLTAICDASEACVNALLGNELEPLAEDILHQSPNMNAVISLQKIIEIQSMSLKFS
Chain of Polyamine deacetylase HDAC10 (Q969S8 whole entry): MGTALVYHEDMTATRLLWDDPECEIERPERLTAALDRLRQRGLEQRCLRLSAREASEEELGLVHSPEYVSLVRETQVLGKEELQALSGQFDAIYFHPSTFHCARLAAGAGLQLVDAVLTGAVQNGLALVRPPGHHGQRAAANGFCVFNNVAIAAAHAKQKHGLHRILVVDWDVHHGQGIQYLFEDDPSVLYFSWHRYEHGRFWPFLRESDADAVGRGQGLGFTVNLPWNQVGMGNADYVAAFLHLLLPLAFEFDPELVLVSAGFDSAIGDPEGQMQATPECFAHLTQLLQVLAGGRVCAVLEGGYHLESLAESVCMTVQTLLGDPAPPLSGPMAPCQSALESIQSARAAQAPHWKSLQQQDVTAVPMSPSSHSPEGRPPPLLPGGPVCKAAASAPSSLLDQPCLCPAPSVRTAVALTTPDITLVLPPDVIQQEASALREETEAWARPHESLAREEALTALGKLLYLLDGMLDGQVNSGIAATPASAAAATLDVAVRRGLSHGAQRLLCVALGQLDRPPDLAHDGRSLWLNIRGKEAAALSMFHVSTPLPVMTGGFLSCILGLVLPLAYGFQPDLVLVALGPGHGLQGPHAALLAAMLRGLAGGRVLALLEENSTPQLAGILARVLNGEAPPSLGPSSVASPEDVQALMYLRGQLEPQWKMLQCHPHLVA
Chain of Histone deacetylase 11 (Q96DB2 whole entry): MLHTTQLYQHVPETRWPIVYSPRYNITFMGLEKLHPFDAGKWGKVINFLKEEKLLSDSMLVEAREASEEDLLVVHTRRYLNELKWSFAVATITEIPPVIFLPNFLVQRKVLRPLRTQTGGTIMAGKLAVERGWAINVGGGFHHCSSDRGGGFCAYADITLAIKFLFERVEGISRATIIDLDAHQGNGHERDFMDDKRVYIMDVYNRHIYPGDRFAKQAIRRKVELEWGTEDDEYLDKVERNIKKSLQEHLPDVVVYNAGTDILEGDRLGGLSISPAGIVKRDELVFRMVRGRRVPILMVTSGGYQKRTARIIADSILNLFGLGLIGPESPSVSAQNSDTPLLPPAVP
Chain of CYP3A4 (P08684 whole entry): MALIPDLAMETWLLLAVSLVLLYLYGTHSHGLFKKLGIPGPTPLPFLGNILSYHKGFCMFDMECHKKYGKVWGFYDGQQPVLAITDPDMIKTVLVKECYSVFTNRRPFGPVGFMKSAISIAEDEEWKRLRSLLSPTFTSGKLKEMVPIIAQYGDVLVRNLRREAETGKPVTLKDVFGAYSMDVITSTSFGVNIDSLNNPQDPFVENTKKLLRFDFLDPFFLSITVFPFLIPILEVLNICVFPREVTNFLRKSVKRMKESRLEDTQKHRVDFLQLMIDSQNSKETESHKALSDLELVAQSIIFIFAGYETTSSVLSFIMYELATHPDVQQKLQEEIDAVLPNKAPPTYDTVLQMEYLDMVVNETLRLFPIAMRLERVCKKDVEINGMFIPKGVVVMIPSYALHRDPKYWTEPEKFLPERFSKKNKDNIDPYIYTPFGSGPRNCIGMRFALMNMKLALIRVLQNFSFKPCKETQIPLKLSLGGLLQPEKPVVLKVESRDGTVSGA
Chain of Histone deacetylase 7 (Q8WUI4 whole entry): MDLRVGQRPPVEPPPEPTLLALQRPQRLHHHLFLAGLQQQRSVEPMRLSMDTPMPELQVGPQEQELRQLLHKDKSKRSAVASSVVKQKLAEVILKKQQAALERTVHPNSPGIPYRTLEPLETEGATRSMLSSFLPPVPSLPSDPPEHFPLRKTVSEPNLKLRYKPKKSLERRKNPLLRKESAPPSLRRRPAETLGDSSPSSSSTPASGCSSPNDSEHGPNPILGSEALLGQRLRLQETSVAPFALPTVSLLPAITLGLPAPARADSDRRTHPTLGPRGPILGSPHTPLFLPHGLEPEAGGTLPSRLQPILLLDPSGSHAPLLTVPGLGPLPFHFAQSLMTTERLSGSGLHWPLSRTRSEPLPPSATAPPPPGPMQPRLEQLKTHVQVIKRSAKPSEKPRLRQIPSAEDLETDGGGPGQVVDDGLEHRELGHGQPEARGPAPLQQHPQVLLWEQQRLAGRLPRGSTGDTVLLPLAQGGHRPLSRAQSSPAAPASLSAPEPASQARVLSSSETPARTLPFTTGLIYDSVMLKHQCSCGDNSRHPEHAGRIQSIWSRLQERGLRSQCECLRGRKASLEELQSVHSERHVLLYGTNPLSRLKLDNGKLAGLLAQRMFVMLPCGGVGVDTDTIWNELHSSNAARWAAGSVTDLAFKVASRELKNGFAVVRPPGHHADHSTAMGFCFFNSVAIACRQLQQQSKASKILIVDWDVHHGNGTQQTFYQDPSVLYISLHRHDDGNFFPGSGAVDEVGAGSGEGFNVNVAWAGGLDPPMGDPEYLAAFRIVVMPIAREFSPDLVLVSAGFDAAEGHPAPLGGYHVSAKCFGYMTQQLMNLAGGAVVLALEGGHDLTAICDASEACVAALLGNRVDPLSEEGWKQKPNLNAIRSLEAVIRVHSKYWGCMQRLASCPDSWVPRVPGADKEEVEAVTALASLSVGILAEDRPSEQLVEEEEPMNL
Chain of Histone deacetylase 1 (Q13547 whole entry): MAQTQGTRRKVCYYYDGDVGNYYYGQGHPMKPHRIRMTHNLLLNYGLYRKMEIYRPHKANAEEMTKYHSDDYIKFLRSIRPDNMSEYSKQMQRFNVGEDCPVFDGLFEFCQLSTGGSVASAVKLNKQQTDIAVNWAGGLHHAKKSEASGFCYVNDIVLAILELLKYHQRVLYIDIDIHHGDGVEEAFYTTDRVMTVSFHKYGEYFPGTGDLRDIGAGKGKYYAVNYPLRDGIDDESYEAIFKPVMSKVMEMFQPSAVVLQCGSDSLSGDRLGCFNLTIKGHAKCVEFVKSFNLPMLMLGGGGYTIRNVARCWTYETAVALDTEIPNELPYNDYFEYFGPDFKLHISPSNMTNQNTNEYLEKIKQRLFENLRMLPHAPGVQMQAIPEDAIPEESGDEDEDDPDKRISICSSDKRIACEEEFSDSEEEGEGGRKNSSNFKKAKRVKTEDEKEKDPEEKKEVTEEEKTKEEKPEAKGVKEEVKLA
Chain of CYP2B6 (P20813 whole entry): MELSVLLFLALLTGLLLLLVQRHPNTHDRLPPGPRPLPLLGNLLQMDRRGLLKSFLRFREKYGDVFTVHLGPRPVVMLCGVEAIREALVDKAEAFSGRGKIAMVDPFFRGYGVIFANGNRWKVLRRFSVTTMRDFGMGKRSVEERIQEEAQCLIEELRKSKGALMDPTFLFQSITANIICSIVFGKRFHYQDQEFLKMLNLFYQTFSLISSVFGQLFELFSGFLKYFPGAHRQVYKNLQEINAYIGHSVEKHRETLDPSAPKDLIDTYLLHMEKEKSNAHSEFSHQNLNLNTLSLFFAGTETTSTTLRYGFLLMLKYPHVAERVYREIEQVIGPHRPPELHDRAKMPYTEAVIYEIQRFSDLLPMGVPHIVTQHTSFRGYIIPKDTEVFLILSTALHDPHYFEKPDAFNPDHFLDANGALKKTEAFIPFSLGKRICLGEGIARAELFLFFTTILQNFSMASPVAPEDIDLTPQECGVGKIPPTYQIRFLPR

- MRT inf [1]: 2 h
- remaining at 5 min [2]: 94%
- IC50 (Histone deacetylase 1): 0.306 µM
- IC50 (Histone deacetylase 11): > 10 µM
- inhibition at 10 µM (CYP3A4): 32.5%
- IC50 (Histone deacetylase 7): > 10 µM
- IC50 (MM1.S): 2.9 µM
- IC50 (Histone deacetylase 9): > 10 µM
- remaining at 0 min [6]: 100%
- AUC(0-inf) [9]: 2.77 µg·h/mL
- remaining at 0.5 h [10]: 46.9%
- half-life [11]: 0.449 h
- remaining at 0 min [13]: 100%
- IC50 [14]: > 10 µM
- AUC(0-t) at 24 h [16]: 2.7 µg·h/mL
- IC50 (HL-60): 0.9 µM
- inhibition at 10 µM (CYP2B6): 35.6%
- remaining at 0.5 h [20]: 46.9%
- remaining at 0.5 h [22]: 45%
- remaining at 0.75 h [24]: 35.8%
- IC50 (Histone deacetylase 3): 0.0245 µM
SMILES: COc1nc(-c2ccc(NC(=O)Nc3ccc(C(=O)NCCCCCC(=O)Nc4ccccc4N)cc3)cc2)nc(N2CCOCC2)n1
- Activity (JeKo-1 [3]): 70.4%
- Activity (JeKo-1 [4]): inactive
- Activity (JeKo-1 [5]): 15.1%
- inhibition [7]: Active
- IC50 (JeKo-1 [8]): 0.5 µM
- Ratio IC50 (JeKo-1 [12]): 2
- Activity (JeKo-1 [15]): 0.85%
- Activity (JeKo-1 [17]): inactive
- viability at 0.5 µM (JeKo-1 [18]): 48.8%
- Activity (JeKo-1 [19]): 0.17%
- IC50 at 48 h [21]: > 100 µM
- Activity (JeKo-1 [23]): 0.49%
